Results from ChEMBL document CHEMBL4699567, “hDM2 protein-binding peptides screened from stapled α-helical peptide phage display libraries with different types of staple linkers” (Bioorg Med Chem Lett, 2020).
Starred links: 1 amine or outer side, 2 acyl side, 3 side chain; linkers in the order of their positions; H or OH if unused. Positions of bridges follow the written chain, without caps; N, C: chain ends. Residues, ends and D or L forms follow the SMILES beside them. *: point of attachment. 5FAM = O=C1OC2(c3ccc(O)cc3Oc3cc(O)ccc32)c2ccc(C(=O)*)cc21; CH2CONH(CH2)4NHCOCH2 = O=C(C[*:1])NCCCCNC(=O)C[*:2]

Legend:
[1] = target: T1, E3 ubiquitin-protein ligase Mdm2 (Homo sapiens, UniProt Q00987); assay: Binding affinity to human MDM2 assessed as dissociation constant by fluorescence polarization assay
[2] = target: T1, E3 ubiquitin-protein ligase Mdm2; assay: Binding affinity to human MDM2 assessed as dissociation constant in presence of 50 uM p53 peptide by fluorescence polarization assay

T1 sequence (Q00987 whole entry): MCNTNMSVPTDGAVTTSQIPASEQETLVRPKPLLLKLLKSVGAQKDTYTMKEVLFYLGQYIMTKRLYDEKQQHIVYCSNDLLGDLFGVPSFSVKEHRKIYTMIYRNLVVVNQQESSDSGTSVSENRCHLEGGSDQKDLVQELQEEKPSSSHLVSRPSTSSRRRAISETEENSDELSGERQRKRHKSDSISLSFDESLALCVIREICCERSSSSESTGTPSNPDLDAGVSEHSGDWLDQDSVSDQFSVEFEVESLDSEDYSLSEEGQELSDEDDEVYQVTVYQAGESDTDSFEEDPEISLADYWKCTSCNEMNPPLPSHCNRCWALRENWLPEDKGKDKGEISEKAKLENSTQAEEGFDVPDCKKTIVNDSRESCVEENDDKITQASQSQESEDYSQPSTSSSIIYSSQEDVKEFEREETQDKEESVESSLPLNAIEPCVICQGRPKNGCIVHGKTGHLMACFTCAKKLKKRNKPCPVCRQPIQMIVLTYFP

SMILES	Kd [1] [µM]	Kd [2] [µM]
CSCC[C@H](NC(=O)[C@H](C)NC(=O)CN)C(=O)N[C@@H](CCC(=O)O)C(=O)N[C@H]1CSCC(=O)NCCCCNC(=O)CSC[C@@H](C(=O)N[C@@H](CCCCN)C(=O)N[C@@H](CCCCN)C(=O)N[C@@H](C)C(=O)NCC(=O)NCC(=O)NCC(=O)NCC(=O)N[C@@H](CCCCNC(=O)c2ccc3c(c2)C(=O)OC32c3ccc(O)cc3Oc3cc(O)ccc32)C(N)=O)NC(=O)[C@H](CCC(=O)O)NC(=O)[C@H](CCCCN)NC(=O)[C@H](CCC(=O)O)NC(=O)[C@H](CCCCN)NC(=O)[C@H](CC(C)C)NC(=O)[C@H](Cc2c[nH]c3ccccc23)NC1=O (H-GAMECWLKEKECKKAGGGGK(5FAM)-NH2; linker 5-12 via CH2CONH(CH2)4NHCOCH2)	178	571
CC(C)C[C@H](NC(=O)[C@H](CCC(=O)O)NC(=O)[C@H](CCCCN)NC(=O)[C@H](CC(N)=O)NC(=O)[C@@H](NC(=O)[C@H](CS)NC(=O)[C@H](CCC(=O)O)NC(=O)[C@H](Cc1c[nH]c2ccccc12)NC(=O)[C@H](C)NC(=O)CN)[C@@H](C)O)C(=O)N[C@@H](Cc1c[nH]c2ccccc12)C(=O)N[C@@H](CS)C(=O)N[C@@H](CCCCN)C(=O)N[C@@H](CCC(N)=O)C(=O)N[C@@H](C)C(=O)NCC(=O)NCC(=O)NCC(=O)NCC(=O)N[C@@H](CCCCNC(=O)c1ccc2c(c1)C(=O)OC21c2ccc(O)cc2Oc2cc(O)ccc21)C(N)=O (H-GAWECTNKELWCKQAGGGGK(5FAM)-NH2)	553	
CSCC[C@H](NC(=O)[C@H](C)NC(=O)CN)C(=O)N[C@@H](CCC(=O)O)C(=O)N[C@@H](CS)C(=O)N[C@@H](Cc1c[nH]c2ccccc12)C(=O)N[C@@H](CC(C)C)C(=O)N[C@@H](CCCCN)C(=O)N[C@@H](CCC(=O)O)C(=O)N[C@@H](CCCCN)C(=O)N[C@@H](CCC(=O)O)C(=O)N[C@@H](CS)C(=O)N[C@@H](CCCCN)C(=O)N[C@@H](CCC(N)=O)C(=O)N[C@@H](C)C(=O)NCC(=O)NCC(=O)NCC(=O)NCC(=O)N[C@@H](CCCCNC(=O)c1ccc2c(c1)C(=O)OC21c2ccc(O)cc2Oc2cc(O)ccc21)C(N)=O (H-GAMECWLKEKECKQAGGGGK(5FAM)-NH2)	195	436

Compounds with a lower Kd [1], results first:

Kd [1] [µM]	Kd [2] [µM]	SMILES
140		CSCC[C@H](NC(=O)[C@H](C)NC(=O)CN)C(=O)N[C@@H](CCC(=O)O)C(=O)N[C@H]1CSCC(=O)NCCCCNC(=O)CSC[C@@H](C(=O)N[C@@H](CCCCN)C(=O)N[C@@H](CCC(N)=O)C(=O)N[C@@H](C)C(=O)NCC(=O)NCC(=O)NCC(=O)NCC(=O)N[C@@H](CCCCNC(=O)c2ccc3c(c2)C(=O)OC32c3ccc(O)cc3Oc3cc(O)ccc32)C(N)=O)NC(=O)[C@H](CCC(=O)O)NC(=O)[C@H](CCCCN)NC(=O)[C@H](CCC(=O)O)NC(=O)[C@H](CCCCN)NC(=O)[C@H](CC(C)C)NC(=O)[C@H](Cc2c[nH]c3ccccc23)NC1=O (H-GAMECWLKEKECKQAGGGGK(5FAM)-NH2; linker 5-12 via CH2CONH(CH2)4NHCOCH2)
116	445	CC[C@H](C)[C@H](NC(=O)[C@H](CCCCN)NC(=O)[C@H](CS)NC(=O)[C@H](CCC(=O)O)NC(=O)[C@H](CCC(N)=O)NC(=O)[C@H](CCC(=O)O)NC(=O)[C@H](CCCCN)NC(=O)[C@H](CC(C)C)NC(=O)[C@H](Cc1c[nH]c2ccccc12)NC(=O)[C@H](CS)NC(=O)[C@H](CCC(=O)O)NC(=O)[C@H](CCSC)NC(=O)[C@H](C)NC(=O)CN)C(=O)N[C@@H](C)C(=O)NCC(=O)NCC(=O)NCC(=O)NCC(=O)N[C@@H](CCCCNC(=O)c1ccc2c(c1)C(=O)OC21c2ccc(O)cc2Oc2cc(O)ccc21)C(N)=O (H-GAMECWLKEQECKIAGGGGK(5FAM)-NH2)
